The text below walks through data of patent US12077503B2, “Substituted cyclic amides and their use as herbicides” (FMC CORPORATION, priority 2015, dated 2024).

Each structure is given as a SMILES string.

What all share (format): in vivo
Assay [1] has as its system ragweed (common ragweed, Ambrosia elatior). Put plainly: Test A preemergence. The conditions noted are these: Ambrosia artemisiifolia, pre-emergence, 240 h. The method, boiled down:
(§1)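 Visual injury scores from 0, no effect, to 100, complete control, were assigned versus untreated controls roughly 10 d after treatment in the greenhouse. Test chemicals, formulated with surfactant in a non-phytotoxic solvent, were applied to planted seeds as a preemergence soil spray or postemergence to one- to two-leaf plants 2 to 10 cm tall, in loam–sand soil.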

In assay [2] the test system is pigweed (Amaranthus retroflexus). Put plainly: Test A preemergence. Conditions: Amaranthus retroflexus, pre-emergence, 240 h.
Assay [3] has as its system ryegrass, Italian (Italian ryegrass, Lolium multiflorum). Nature of the assay: Test A preemergence. Conditions: Lolium multiflorum, pre-emergence, 240 h. The method, boiled down: as §1
Assay [4] has as its system Kochia (Kochia scoparia). Put plainly: Test A preemergence. Conditions: Bassia scoparia, pre-emergence, 240 h. The procedure, abridged:
as §1

The subject of assay [5] is barnyardgrass (Echinochloa crus-galli). Nature of the assay: Test A preemergence. The conditions noted are these: Echinochloa crus-galli, pre-emergence, 240 h. The method, boiled down:
as §1

The test system of assay [6] is giant foxtail (Setaria faberii). Put plainly: Test A preemergence. Conditions: Setaria faberi, pre-emergence, 240 h. The method, boiled down:
as §1

For assay [7], the system named is ragweed (common ragweed, Ambrosia elatior). Nature of the assay: Test A postemergence. The conditions noted are these: Ambrosia artemisiifolia, post-emergence, 240 h, 125 g ai/ha, postemergence; visual injury after approximately 10 d; 0 to 100 scale (0 no effect, 100 complete control); read-out: Plant response rating, Ragweed. The procedure, abridged: as §1
Assay [8] has as its system pigweed (Amaranthus retroflexus). Put plainly: Test A postemergence. The conditions noted are these: Amaranthus retroflexus, post-emergence, 240 h, 125 g ai/ha, postemergence; visual injury after approximately 10 d; 0 to 100 scale (0 no effect, 100 complete control); read-out: Plant response rating, Pigweed. The procedure, abridged:
as §1

Assay [9] has as its system blackgrass (Alopecurus myosuroides). Put plainly: Test A postemergence. Conditions: Alopecurus myosuroides, post-emergence, 240 h, 125 g ai/ha, postemergence; visual injury after approximately 10 d; 0 to 100 scale (0 no effect, 100 complete control); read-out: Plant response rating, Blackgrass. The procedure, abridged:
as §1

Assay [10] has as its system ryegrass, Italian (Italian ryegrass, Lolium multiflorum). Put plainly: Test A postemergence. Conditions: Lolium multiflorum, post-emergence, 240 h, 125 g ai/ha, postemergence; visual injury after approximately 10 d; 0 to 100 scale (0 no effect, 100 complete control); read-out: Plant response rating, Ryegrass, Italian. The procedure, abridged:
as §1

In assay [11] the test system is Galium (catchweed bedstraw, Galium aparine). Nature of the assay: Test A postemergence. Conditions: Galium, post-emergence, 240 h, 125 g ai/ha, postemergence; visual injury after approximately 10 d; 0 to 100 scale (0 no effect, 100 complete control); read-out: Plant response rating, Galium. The procedure, abridged: as §1
The subject of assay [12] is Kochia (Kochia scoparia). Put plainly: Test A postemergence. The conditions noted are these: Bassia scoparia, post-emergence, 240 h, 125 g ai/ha, postemergence; visual injury after approximately 10 d; 0 to 100 scale (0 no effect, 100 complete control); read-out: Plant response rating, Kochia. The procedure, abridged: as §1
In a further assay the test system is corn (Zea mays). Put plainly: Test A postemergence. The conditions noted are these: Zea mays, post-emergence, 240 h, 125 g ai/ha, postemergence; visual injury after approximately 10 d; 0 to 100 scale (0 no effect, 100 complete control). The procedure, abridged:
as §1

Assay [13] concerns wheat (Triticum aestivum). Nature of the assay: Test A postemergence. Conditions: Triticum aestivum, post-emergence, 240 h, 125 g ai/ha, postemergence; visual injury after approximately 10 d; 0 to 100 scale (0 no effect, 100 complete control); read-out: Plant response rating, Wheat. The procedure, abridged: as §1
Assay [14] deals with barnyardgrass (Echinochloa crus-galli). Put plainly: Test A postemergence. The conditions noted are these: Echinochloa crus-galli, post-emergence, 240 h, 125 g ai/ha, postemergence; visual injury after approximately 10 d; 0 to 100 scale (0 no effect, 100 complete control); read-out: Plant response rating, Barnyardgrass. The method, boiled down: as §1
Assay [15] relates to giant foxtail (Setaria faberii). Nature of the assay: Test A postemergence. The conditions noted are these: Setaria faberi, post-emergence, 240 h, 125 g ai/ha, postemergence; visual injury after approximately 10 d; 0 to 100 scale (0 no effect, 100 complete control); read-out: Plant response rating, Foxtail, Giant. The method, boiled down: as §1

For `CC(F)(F)c1cccc([C@H]2CNC(=O)[C@@H]2C(=O)Nc2ccccc2F)c1` [Compound 782], the pest or weed control at 125 g/ha in [1] (125 g ai/ha, preemergence, visual rating after approx. 10 d, 0 to 100 scale where 0 is no effect and 100 is complete control, read-out: Plant response rating, Ragweed) was found to be 0%; in [2] (125 g ai/ha, preemergence, visual rating after approx. 10 d, 0 to 100 scale where 0 is no effect and 100 is complete control, read-out: Plant response rating, Pigweed) it was 0%; in [3] (125 g ai/ha, preemergence, visual rating after approx. 10 d, 0 to 100 scale where 0 is no effect and 100 is complete control, read-out: Plant response rating, Ryegrass, Italian), 40%; in the assay with Kochia (Kochia scoparia) [4] (125 g ai/ha, preemergence, visual rating after approx. 10 d, 0 to 100 scale where 0 is no effect and 100 is complete control, read-out: Plant response rating, Kochia) it was 80%; in assay [5] (125 g ai/ha, preemergence, visual rating after approx. 10 d, 0 to 100 scale where 0 is no effect and 100 is complete control, read-out: Plant response rating, Barnyardgrass) it was 80%; in [6] (125 g ai/ha, preemergence, visual rating after approx. 10 d, 0 to 100 scale where 0 is no effect and 100 is complete control, read-out: Plant response rating, Foxtail, Giant) it was 90%. Besides, the pest or weed control at 125 g/ha in assay [7] was determined as 0%; in [8], 0%; in assay [9] it was 70%; in assay [10], 40%; in [11], 70%; with Kochia (Kochia scoparia) [12], 10%. The pest or weed control at 125 g/ha in assay [14] and in assay [15] was 90% in each case. Besides, the pest or weed control at 500 g/ha in assay [1] (500 g ai/ha, Preemergence, visual injury vs untreated controls after approximately 10 d, read-out: Ragweed plant response rating (0 to 100 scale where 0 is no effect and 100 is complete control)) amounted to 20%; in assay [2] (500 g ai/ha, Preemergence, visual injury vs untreated controls after approximately 10 d, read-out: Pigweed plant response rating (0 to 100 scale where 0 is no effect and 100 is complete control)) it was 50%; in assay [3] (500 g ai/ha, Preemergence, visual injury vs untreated controls after approximately 10 d, read-out: Ryegrass, Italian plant response rating (0 to 100 scale where 0 is no effect and 100 is complete control)) it was 60%; in the assay on Kochia (Kochia scoparia) [4] (500 g ai/ha, Preemergence, visual injury vs untreated controls after approximately 10 d, read-out: Kochia plant response rating (0 to 100 scale where 0 is no effect and 100 is complete control)), 90%; in [5] (500 g ai/ha, Preemergence, visual injury vs untreated controls after approximately 10 d, read-out: Barnyardgrass plant response rating (0 to 100 scale where 0 is no effect and 100 is complete control)), 90%; in assay [6] (500 g ai/ha, Preemergence, visual injury vs untreated controls after approximately 10 d, read-out: Foxtail, Giant plant response rating (0 to 100 scale where 0 is no effect and 100 is complete control)) it was 100%. For the same molecule, the Corn plant response rating (crop injury, 0 = no effect, 100 = complete kill) at 125 g/ha in the assay on corn (Zea mays) was 60%. Besides, the plant injury at 125 g/ha in assay [13] came to 60%.
